In brackets after ≈: the same amount, converted by molar mass.
Assays:
Assay type in all cases: cell-based
[1] = system: BXPC-3 (pancreas); test: Sulforhodamine B human cancer cell growth inhibition, BXPC-3; conditions: BXPC-3 pancreas cell line, compounds in DMSO, 48 h; for IC50: Homo sapiens, read-out: Gl50 Growth Inhibition, XPC-3
Protocol: (§1) Cancer Cell Line Procedures. Inhibition of human cancer cell growth was assessed using the standard sulforhodamine B assay of the U.S. National Cancer Institute, as previously described.^15 To begin, cells in a 5% fetal bovine serum/RPMI1640 medium were inoculated in 96-well plates and incubated for 24 h. Next, serial dilutions of the compounds were added. After 48 h, the plates were fixed with trichloroacetic acid, stained with sulforhodamine B, and read with an automated microplate reader.

[2] = system: KM20L2 (colon); test: Sulforhodamine B human cancer cell growth inhibition, KM20L2; conditions: compounds in DMSO, 48 h; for IC50: Homo sapiens, KM-20L2, KM20L2 colon cell line, read-out: Gl50 Growth Inhibition, KM20L2; for Gl50 Growth Inhibition, KM20L2: KM20L2 colon cell line
Protocol: as §1

[3] = system: SF-268 (CNS); test: Sulforhodamine B human cancer cell growth inhibition, SF-268; conditions: SF-268 CNS cell line, compounds in DMSO, 48 h; for IC50: Homo sapiens, read-out: Gl50 Growth Inhibition, SF-268
Protocol: as §1

[4] = system: DU-145 (prostate); test: Sulforhodamine B human cancer cell growth inhibition, DU-145; conditions: DU-145 prostate cell line, compounds in DMSO, 48 h; for IC50: Homo sapiens, read-out: Gl50 Growth Inhibition, DU-145
Protocol: as §1

[5] = system: MCF-7 (breast); test: Sulforhodamine B human cancer cell growth inhibition, MCF-7; conditions: compounds in DMSO, 48 h; for IC50: Homo sapiens, MCF7, MCF-7 breast cell line, read-out: Gl50 Growth Inhibition, MCF-7; for Gl50 Growth Inhibition, MCF-7: MCF-7 breast cell line
Protocol: as §1

[6] = system: NCI-H460 (lung); test: Sulforhodamine B human cancer cell growth inhibition, NCI-H460; conditions: NCI-H460 lung cell line, compounds in DMSO, 48 h; for IC50: Homo sapiens, read-out: Gl50 Growth Inhibition, NCI-H460
Protocol: as §1

Compound | IC50 [1] | IC50 [2] | IC50 [3] | IC50 [4] | IC50 [5] | IC50 [6] | Gl50 Growth Inhibition, XPC-3 [1] | Gl50 Growth Inhibition, KM20L2 [2] | Gl50 Growth Inhibition, SF-268 [3] | Gl50 Growth Inhibition, DU-145 [4] | Gl50 Growth Inhibition, MCF-7 [5] | Gl50 Growth Inhibition, NCI-H460 [6]
C=C(CN=[N+]=[N-])[C@@H]1CC[C@]2(COC(C)=O)CC[C@]3(C)C(CCC4[C@@]5(C)CC[C@H](OC(C)=O)C(C)(C)[C@@H]5CC[C@]43C)[C@@H]12 (stereo partly drawn) [Compound 13, 3,28-Di-O-acetyl-30-azido-betulin] | > 10 µg/mL | > 10 µg/mL | > 10 µg/mL | > 10 µg/mL | > 10 µg/mL | > 10 µg/mL |  |  |  |  |  | 
C=C(CNC(=O)[C@H](C)[C@@H](OC)[C@@H]1CCCN1C(=O)OC(C)(C)C)[C@@H]1CC[C@]2(COC(C)=O)CC[C@]3(C)[C@H](CC[C@@H]4[C@@]5(C)CC[C@H](OC(C)=O)C(C)(C)[C@@H]5CC[C@]43C)[C@@H]12 [Compound 15b, 30-N-(Boc-dap)-3, 28-di-O-acetoxy-betulin] |  |  |  |  |  |  | >10 µg/mL | 7.0 µg/mL | 5.9 µg/mL | >10 µg/mL | >10 µg/mL | >10 µg/mL
C=C(CN)[C@@H]1CC[C@]2(CO)CC[C@]3(C)[C@H](CC[C@@H]4[C@@]5(C)CC[C@H](O)C(C)(C)[C@@H]5CC[C@]43C)[C@@H]12 [Compound 14, 30-Amino-betulin] |  |  |  |  |  |  | 3.0 µg/mL | 2.9 µg/mL | 4.2 µg/mL | 2.1 µg/mL | 3.1 µg/mL | 4.0 µg/mL
C=C(C)[C@@H]1CC[C@]2(COC(C)=O)CC[C@]3(C)[C@H](CC[C@@H]4[C@@]5(C)CC[C@H](NC(=O)[C@H](C)[C@@H](OC)[C@@H]6CCCN6C(=O)C[C@@H](OC)[C@H]([C@@H](C)CC)N(C)C(=O)[C@@H](NC(=O)[C@H](C(C)C)N(C)C)C(C)C)C(C)(C)[C@@H]5CC[C@]43C)[C@@H]12 [Compound 11a, 3β-Amino-N-(Dap-Dil-Val-Dov)-28-O-acetyl-betulin] |  |  |  |  |  |  | 10.0 µg/mL | 7.0 µg/mL | 3.8 µg/mL | 2.5 µg/mL | 4.1 µg/mL | >10 µg/mL
C=C(CNC(=O)[C@H](C)[C@@H](OC)[C@@H]1CCCN1C(=O)OC(C)(C)C)[C@@H]1CC[C@]2(CO)CC[C@]3(C)[C@H](CC[C@@H]4[C@@]5(C)CC[C@H](O)C(C)(C)[C@@H]5CC[C@]43C)[C@@H]12 [Compound 15a, 30-N-(Boc-dap)-betulin] |  |  |  |  |  |  | >10 µg/mL | >10 µg/mL | >10 µg/mL | >10 µg/mL | 9.0 µg/mL | >10 µg/mL
C=C(C)[C@@H]1CC[C@]2(CNC(=O)[C@H](C)[C@@H](OC)[C@@H]3CCCN3C(=O)C[C@@H](OC)[C@H]([C@@H](C)CC)N(C)C(=O)[C@@H](NC(=O)[C@H](C(C)C)N(C)C)C(C)C)CC[C@]3(C)[C@H](CC[C@@H]4[C@@]5(C)CC[C@H](OC(C)=O)C(C)(C)[C@@H]5CC[C@]43C)[C@@H]12 [Compound 7a, 3-O-Acetyl-28-amino-N-(Dap-Dil-Val-Dov)-betulin] |  |  |  |  |  |  | 4.1 µg/mL | 2.4 µg/mL | 2.6 µg/mL | 3.7 µg/mL | 3.6 µg/mL | 4.2 µg/mL
C=C(C)[C@@H]1CC[C@]2(COC(C)=O)CC[C@]3(C)C(CCC4[C@@]5(C)CC[C@H](NC(=O)[C@H](C)[C@@H](OC)C6CCCN6C(=O)OC(C)(C)C)C(C)(C)[C@@H]5CC[C@]43C)[C@@H]12 (stereo partly drawn) [Compound 10, 3-β-Amino-N-(Boc-Dap)-28-O-acetyl-betulin] | > 10 µg/mL | > 10 µg/mL | > 10 µg/mL | > 10 µg/mL | > 10 µg/mL | > 10 µg/mL |  |  |  |  |  | 
C=C(C)[C@@H]1CC[C@]2(COC(C)=O)CC[C@]3(C)C(CCC4[C@@]5(C)CC/C(=N/O)C(C)(C)[C@@H]5CC[C@]43C)[C@@H]12 (stereo partly drawn) [Compound 8, 3-Oxime-28-O-acetyl-betulin] | 10.4 µg/mL (≈ 20.9 µM) | 14.1 µg/mL (≈ 28.3 µM) | > 10 µg/mL | > 10 µg/mL | 5.9 µg/mL (≈ 11.9 µM) | > 10 µg/mL |  |  |  |  |  | 
C=C(C)[C@@H]1CC[C@]2(C=O)CC[C@]3(C)[C@H](CC[C@@H]4[C@@]5(C)CC[C@H](OC(C)=O)C(C)(C)[C@@H]5CC[C@]43C)[C@@H]12 [Compound 1, 3-O-Acetyl-28-betulinal] |  |  |  |  |  |  | >10 µg/mL | >10 µg/mL | >10 µg/mL | >10 µg/mL | >10 µg/mL | >10 µg/mL
3-O-Acetyl-28-amido-allobetulin-28-N-1′-ethyldiamine-N-2′-Dap-Dil-Val-Dov [Compound 18a] |  |  |  |  |  |  | 3.8 µg/mL | 3.1 µg/mL | 1.3 µg/mL | 0.39 µg/mL | 3.6 µg/mL | 5.1 µg/mL
C=C(CNC(=O)[C@H](C)[C@@H](OC)[C@@H]1CCCN1C(=O)C[C@@H](OC)[C@H]([C@@H](C)CC)N(C)C(=O)[C@@H](NC(=O)[C@H](C(C)C)N(C)C)C(C)C)[C@@H]1CC[C@]2(COC(C)=O)CC[C@]3(C)[C@H](CC[C@@H]4[C@@]5(C)CC[C@H](OC(C)=O)C(C)(C)[C@@H]5CC[C@]43C)[C@@H]12 [Compound 16a, 30-N-(Dap-Dil-Val-Dov)-3,28-di-O-acetoxy-betulin] |  |  |  |  |  |  | 8.0 µg/mL | 4.0 µg/mL | 4.0 µg/mL | 3.0 µg/mL | 6.3 µg/mL | >10 µg/mL
C=C(C)[C@@H]1CC[C@]2(COC(C)=O)CC[C@]3(C)[C@H](CC[C@@H]4[C@@]5(C)CCC(N)C(C)(C)[C@@H]5CC[C@]43C)[C@@H]12 (single isomer, unassigned) [Compound 9a, 3-α/β-Amino-28-O-acetyl-betulin] |  |  |  |  |  |  | >10 µg/mL | 3.0 µg/mL | 1.2 µg/mL | 1.3 µg/mL | 2.1 µg/mL | 6.0 µg/mL
C=C(CBr)[C@@H]1CC[C@]2(COC(C)=O)CC[C@]3(C)[C@H](CC[C@@H]4[C@@]5(C)CC[C@H](OC(C)=O)C(C)(C)[C@@H]5CC[C@]43C)[C@@H]12 [Compound 12, 3,28-Di-O-acetyl-30-bromo-betulin] |  |  |  |  |  |  | >10 µg/mL | >10 µg/mL | >10 µg/mL | >10 µg/mL | >10 µg/mL | >10 µg/mL
C=C(C)[C@@H]1CC[C@]2(CN)CC[C@]3(C)C(CCC4[C@@]5(C)CC[C@H](OC(C)=O)C(C)(C)C5CC[C@]43C)C12 (stereo partly drawn) [Compound 3, 3-O-Acetyl-28-aminobetulin] | 1.9 µg/mL (≈ 3.93 µM) | 1.9 µg/mL (≈ 3.93 µM) | 1.8 µg/mL (≈ 3.72 µM) | 1.8 µg/mL (≈ 3.72 µM) | 1.8 µg/mL (≈ 3.72 µM) | 1.9 µg/mL (≈ 3.93 µM) |  |  |  |  |  | 
C=C(C)[C@@H]1CC[C@]2(/C=N/O)CC[C@]3(C)[C@H](CC[C@@H]4[C@@]5(C)CC[C@H](OC(C)=O)C(C)(C)[C@@H]5CC[C@]43C)[C@@H]12 [Compound 2, 3-O-Acetyl-28-oxime-betulin] |  |  |  |  |  |  | 15.5 µg/mL | 5.1 µg/mL | 13.2 µg/mL | >10 µg/mL | 4.5 µg/mL | 4.1 µg/mL
C=C(C)[C@@H]1CC[C@]2(CNC(=O)[C@H](C)[C@@H](OC)C3CCCN3C(=O)OC(C)(C)C)CC[C@]3(C)C(CCC4[C@@]5(C)CC[C@H](OC(C)=O)C(C)(C)C5CC[C@]43C)C12 (stereo partly drawn) [Compound 5, 3-O-Acetyl-28-amino-N-(Boc-dap)-betulin] | > 10 µg/mL | > 10 µg/mL | > 10 µg/mL | > 10 µg/mL | > 10 µg/mL | > 10 µg/mL |  |  |  |  |  | 
C=C(C)[C@@H]1CC[C@]2(CO)CC[C@]3(C)[C@H](CC[C@@H]4[C@@]5(C)CC[C@H](O)C(C)(C)[C@@H]5CC[C@]43C)[C@@H]12 [Betulin, betulin, reference compound] | 9.3 µg/mL (≈ 21 µM) | > 10 µg/mL | > 10 µg/mL | > 10 µg/mL | > 10 µg/mL | 7.4 µg/mL (≈ 16.7 µM) |  |  |  |  |  | 

From patent publication US12258370B2, “Betulastatin compounds” (Arizona Board of Regents on behalf of Arizona State …, priority 2017, dated 2025)
